According to ChEMBL document CHEMBL3526091, “Pharmacokinetics, metabolism, and excretion of the glycogen synthase kinase-3 inhibitor LY2090314 in rats, dogs, and humans: a case study in rapid clearance by extensive metabolism with low circulating metabolite exposure” (Drug Metab Dispos, 2013):

Experiments:
[1] = Drug recovery in Sprague-Dawley rat feces at 5 mg/kg, iv administered for 30 mins during 0 to 168 hrs time interval by radio analysis; type: ADME, organism-based; set-up: dose 5 mg/kg, dosed compound name [14C]LY2090314, route intravenous; conditions: in vivo
[2] = AUC (0 to infinity) in beagle dog at 5 mg/kg, iv administered for 30 mins; type: ADME, organism-based, Canis lupus familiaris; set-up: time infinity, dose 5 mg/kg, dosed compound name [14C]LY2090314, route intravenous; conditions: plasma
Plasma [3] = experiment: Drug metabolism in Mdr1a knockout Sprague-Dawley rat plasma at 5 mg/kg, iv administered for 30 mins; type: ADME, organism-based; set-up: dose 5 mg/kg, dosed compound name LY2090314, route intravenous; conditions: in vivo, 0.5 h
[4] = Volume of distribution at steady state in cancer patient at 10 mg for 60 mins treated 1/1 cycle/day; type: ADME, organism-based; set-up: dosed compound name LY2090314; conditions: human, in vivo, read-out: Vdss
[5] = Clearance in Sprague-Dawley rat at 5 mg/kg, iv administered for 30 mins; type: ADME, organism-based; set-up: dose 5 mg/kg, dosed compound name [14C]LY2090314, route intravenous; conditions: in vivo
[6] = Drug recovery in beagle dog urine at 5 mg/kg, iv administered for 30 mins during 0 to 24 hrs time interval by radio analysis; type: ADME, organism-based, Canis lupus familiaris; set-up: dose 5 mg/kg, dosed compound name [14C]LY2090314, route intravenous; conditions: in vivo
Plasma [7] = experiment: Drug recovery in beagle dog plasma assessed as radiochemical peak area at 5 mg/kg, iv administered for 30 mins after 0.5 hrs by radio analysis; type: ADME, organism-based, Canis lupus familiaris; set-up: dose 5 mg/kg, dosed compound name [14C]LY2090314, route intravenous; conditions: in vivo
[8] = Tmax in cancer patient at 120 mg for 60 mins treated 1/8 cycle/day; type: ADME, organism-based; set-up: dosed compound name LY2090314; conditions: human, in vivo
[9] = Cmax in Sprague-Dawley rat at 5 mg/kg, iv administered for 30 mins; type: ADME, organism-based; set-up: dose 5 mg/kg, dosed compound name [14C]LY2090314, route intravenous; conditions: in vivo
[10] = Volume of distribution at steady state in cancer patient at 80 mg for 60 mins treated 1/1 cycle/day; type: ADME, organism-based; set-up: dosed compound name LY2090314; conditions: human, in vivo, read-out: Vdss
Canis familiaris [11] = experiment: Drug recovery in beagle dog cage at 5 mg/kg, iv administered for 30 mins during 0 to 168 hrs time interval by radio analysis; type: ADME, organism-based, Canis lupus familiaris; set-up: dose 5 mg/kg, dosed compound name [14C]LY2090314, route intravenous; conditions: in vivo
Canis familiaris [12] = experiment: Drug recovery in beagle dog cage at 5 mg/kg, iv administered for 30 mins during 0 to 24 hrs time interval by radio analysis; type: ADME, organism-based, Canis lupus familiaris; set-up: dose 5 mg/kg, dosed compound name [14C]LY2090314, route intravenous; conditions: in vivo
[13] = Tmax in Sprague-Dawley rat at 5 mg/kg, iv administered for 30 mins; type: ADME, organism-based; set-up: dose 5 mg/kg, dosed compound name [14C]LY2090314, route intravenous; conditions: in vivo
Blood = experiment: Drug uptake in Sprague-Dawley rat blood at 5 mg/kg, iv administered for 30 mins; type: ADME, organism-based; set-up: dose 5 mg/kg, dosed compound name [14C]LY2090314, route intravenous; conditions: in vivo, 0.5 h
[14] = Clearance in cancer patient at 40 mg for 60 mins treated 1/8 cycle/day; type: ADME, organism-based; set-up: dosed compound name LY2090314; conditions: human, in vivo
[15] = Drug metabolism in Mdr1a knockout Sprague-Dawley rat bile at 5 mg/kg, iv administered for 30 mins; type: ADME, organism-based; set-up: dose 5 mg/kg, dosed compound name LY2090314, route intravenous; conditions: in vivo, 0.5 h
[16] = Half life in cancer patient at 120 mg for 60 mins treated 1/8 cycle/day; type: ADME, organism-based; set-up: dosed compound name LY2090314; conditions: human, in vivo
[17] = Half life in cancer patient at 60 mg for 60 mins treated 1/8 cycle/day; type: ADME, organism-based; set-up: dosed compound name LY2090314; conditions: human, in vivo
[18] = Volume of distribution at steady state in cancer patient at 20 mg for 60 mins treated 2/1 cycle/day; type: ADME, organism-based; set-up: dosed compound name LY2090314; conditions: human, in vivo, read-out: Vdss
[19] = Drug recovery in bile duct-intact Sprague-Dawley rat assessed as radioactivity in feces during 0 to 24 hrs at 5 mg/kg, iv administered for 30 mins relative to dosed radioactivity; type: ADME, organism-based; set-up: dose 5 mg/kg, dosed compound name [14C]LY2090314, route intravenous; conditions: in vivo
[20] = Drug recovery in beagle dog feces at 5 mg/kg, iv administered for 30 mins during 0 to 168 hrs time interval by radio analysis; type: ADME, organism-based, Canis lupus familiaris; set-up: dose 5 mg/kg, dosed compound name [14C]LY2090314, route intravenous; conditions: in vivo
[21] = Drug recovery in Sprague-Dawley rat feces at 5 mg/kg, iv administered for 30 mins during 48 hrs time interval by radio analysis; type: ADME, organism-based; set-up: dose 5 mg/kg, dosed compound name [14C]LY2090314, route intravenous; conditions: in vivo
[22] = Clearance in cancer patient at 80 mg for 60 mins treated 1/1 cycle/day; type: ADME, organism-based; set-up: dosed compound name LY2090314; conditions: human, in vivo
[23] = Drug recovery in bile duct-intact Sprague-Dawley rat assessed as radioactivity in bile during 0 to 24 hrs at 5 mg/kg, iv administered for 30 mins relative to dosed radioactivity; type: ADME, organism-based; set-up: dose 5 mg/kg, dosed compound name [14C]LY2090314, route intravenous; conditions: in vivo
[24] = Drug recovery in bile duct-cannulated Sprague-Dawley rat bile at 5 mg/kg, iv administered for 30 mins during 0 to 12 hrs time interval by radio analysis; type: ADME, organism-based; set-up: dose 5 mg/kg, dosed compound name [14C]LY2090314, route intravenous; conditions: in vivo
Plasma [25] = experiment: Plasma concentration in beagle dog at 5 mg/kg, iv administered for 30 mins; type: ADME, organism-based, Canis lupus familiaris; set-up: dose 5 mg/kg, dosed compound name [14C]LY2090314, route intravenous; conditions: in vivo, 0.5 h

O=C1NC(=O)C(c2cnc3ccccn23)=C1c1cn2c3c(cc(F)cc13)CN(C(=O)N1CCCCC1)CC2 [LY-2090314]
Radiolabel recovery [1]: 96.7% | AUC(0-inf) [2]: 3.23 µg·h/mL | Drug metabolism (Plasma [3]): metabolite_not_detected | Vd [4]: 89.7 L | clearance [5]: 3.45 L/h/kg | Radiolabel recovery [6]: 19.8% | Radiolabel recovery (Plasma [7]): 82.76% | Tmax [8]: 0.5 h | Cmax [9]: 1.68 µg/mL | Vd [10]: 86.3 L | Radiolabel recovery (Canis familiaris [11]): 3.22% | Radiolabel recovery (Canis familiaris [12]): 2.03% | Tmax [13]: 0.5 h | Compound recovery (Blood): 83.4% | clearance [14]: 710 mL/min | Drug metabolism [15]: metabolite_detected | half-life [16]: 3.05 h | half-life [17]: 3.35 h | Vd [18]: 71.5 L | Radiolabel recovery [19]: 2.4% | Radiolabel recovery [20]: 69.2% | Radiolabel recovery [21]: 65.8% | clearance [22]: 747 mL/min | Radiolabel recovery [23]: 1.8% | Radiolabel recovery [24]: 85.2% | Compound recovery (Plasma [25]): 21.4%
